# A melting point compilation (Tetko et al.; mined from patent text by program, amines drawn as free bases though some values may be those of a salt)
row,Compound,melting point
1,COc1cc2c(cc1Nc1ncc(Cl)c(N[C@@H]3CCCC[C@H]3NS(C)(=O)=O)n1)NC(=O)CN(CC1CC1)C2,97 °C
2,CCOC(=O)c1ncc2[nH]c3c(c2c1COC)C(=O)CCC3,249 to 250 °C
3,Ic1nnnn1Cc1ccccc1,122 °C
4,c1cc(N2CCOCC2)ccn1,93 to 95 °C
5,CNc1ccc(Cl)cc1C(O)c1ccccc1Cl (stereo not given),106 to 108 °C
6,CC(C)CNC(=O)NS(=O)(=O)c1ccc(CCNC(=O)N2CCCCC2=O)cc1,179 to 181 °C
7,CNC(=O)N1N=C(c2ccc([N+](=O)[O-])cc2)c2cc(Br)ccc2CC1C (stereo not given),197 to 200 °C
8,O=c1c(O)c(-c2ccc(OCc3ccccc3)c(OCc3ccccc3)c2)oc2cc(OCc3ccccc3)ccc12,120 to 121 °C
9,Cc1nc(-n2cnn(CC(=O)Nc3ccc(Cl)cc3)c2=O)sc1C(=O)NCc1cccnc1,255 to 256 °C
10,CC1CNC(c2n[nH]c(-c3ccc(Cl)cc3)c2-c2ccncc2)C(C)N1 (stereo not given),236 to 238 °C
11,COc1ccc(-c2ccnc(Nc3cc(OC)c(OC)c(OC)c3)n2)cc1,148 to 150 °C
12,CS(=O)(=O)c1ccc(-c2cc(CO[N+](=O)[O-])nn2Cc2ccccc2)cc1,94 to 96 °C
13,CNc1nc(N)nc(OCC(F)(F)F)n1,204 to 205 °C
14,O=C(C=CC=C(c1ccccc1)c1ccccc1)NCCCCCC(=O)NO,167 to 169 °C
15,O=C(O)Cc1cccc(OCc2ccccc2Cl)c1OCc1ccccc1Cl,102 to 104 °C
16,O=c1sc2ccccc2n1CO,101 to 103 °C
17,O=[N+]([O-])c1cc(C(c2ccc(Nc3ccccc3)c([N+](=O)[O-])c2)(C(F)(F)F)C(F)(F)F)ccc1Nc1ccccc1,165 to 166 °C
18,CCN1C[C@@H](O)[C@H](Sc2ccccc2Cl)C1 (relative stereo),90.5 to 92.5 °C
19,CSC(=S)NN=Cc1nc(C)[nH]c1C,279 to 281 °C
20,Cc1cc(-c2ncn3c(C(F)(F)F)cc(-c4ccc(Br)cc4)nc23)ccn1,249 °C
21,CCN(CC)c1c(C(=O)O)ccc(OC)c1OC,57 to 62 °C
22,CCOC(=O)c1cn(C)c2nc3cc(N4CCNC(c5ccco5)C4)c(F)cc3cc2c1=O (racemic),198 to 200 °C
23,COC(=O)c1ccc2oc3c(c(=O)c2c1)CCC3=Cc1cc(OC)c(OC)cc1OC,221 to 224 °C
24,N#Cc1c(-c2ccc(OCc3ccccc3)cc2)cn(-c2cccc(OCCCl)c2)c1N,77 to 79 °C
25,BrCCCCOc1ccc(OCCCCBr)cc1,89 to 91 °C

row,Compound,melting point
1,Cc1ccc(C(C)(C)C)c(SC2=C(O)CC(CCc3ccccc3)(c3ccc(OCCO)cc3)OC2=O)c1 (stereo not given),70 to 73 °C
2,COc1ccc(C2CC(OC(C)=O)CCC2[N+](=O)[O-])cc1OC (stereo not given),108 to 110 °C
3,CC(=O)NC1Cc2cccc3cccc(c23)C1=O (stereo not given),185 to 186 °C
4,COc1ccc(C(=C/C=C/C(=O)Nc2ccc(Cc3cccnc3)cc2)c2ccc(OC)cc2)cc1,185 to 186 °C
5,O=c1c2c[nH]c3c(c-2nn1-c1ccccc1)COCC3,304 to 306 °C
6,O=C1CCCN1C(=O)NCCn1cccn1,62.5 to 63.5 °C
7,ClCCOc1ccc(Cl)c2[nH]ccc12,68 to 72 °C
8,CCc1nc2ccccc2c(=O)n1-c1ccc(F)cc1,178 °C
9,NS(=O)(=O)c1cc(C(=O)O)c(NCc2ccccc2)cc1Oc1ccccc1,237 to 239 °C
10,COc1nc2cc(Br)cc(CNC(=O)C(=O)O)c2nc1OC,> 300 °C
11,Nc1ccc(Oc2ccc(Oc3ccc(N)cc3)c(P(=O)(c3ccccc3)c3ccccc3)c2)cc1,205 to 208 °C
12,O=C(CCCCCN1CCN(c2cccc(C(F)(F)F)c2)CC1)N1Cc2ccc(C(=O)N3CCCCC3)cc2C1,91 °C
13,CCCCC(CC)COC(=O)c1cccc(S(N)(=O)=O)c1 (stereo not given),40 to 42 °C
14,CC1(C)CC(NC(=O)c2cc(N)cc(N)c2)CC(C)(C)N1,188 to 190 °C
15,O=c1oc(-c2ccccc2Cl)nn1-c1ccccc1C(F)(F)F,100 to 102 °C
16,Nc1cnc2c(F)c(F)ccc2c1,161 °C
17,O=c1cnc2cc(C(c3cccc(Cl)c3)n3ccnc3)ccc2[nH]1 (stereo not given),253 °C
18,COCOc1cc(OCOC)cc(C(=O)O)c1,129 to 130 °C
19,OC(Cn1cncn1)(CC(Cl)(Cl)Cl)c1ccc(F)cc1 (stereo not given),127 °C
20,CCN1CC2CCCC2C1CNC(=O)c1cc(Cl)c(NC(C)=O)cc1OC (stereo not given),156 to 157 °C
21,N#Cc1ccccc1Cn1nnc2cc3c(cc2c1=O)OC1CCCN1C3=O (stereo not given),257 to 260 °C
22,Cc1nc2ccccc2c(NCc2ccccc2)c1C(=O)O,190 °C
23,CC(C)(C)OC(=O)NC(Cc1ccccc1)C(O)C(O)C(Cc1ccccc1)NC(=O)OC(C)(C)C (stereo not given),208 to 212 °C
24,Nc1nc(NCCN2CCC(Nc3nc4ccccc4n3Cc3ccc(F)cc3)CC2)ccc1[N+](=O)[O-],206 °C
25,COc1cccc(C(=O)c2ccc([N+](=O)[O-])c(C=O)c2)c1,84 °C

row,Compound,melting point
1,Cc1ccn(-c2nc(Cl)c([N+](=O)[O-])s2)n1,153 °C
2,CC(C)(C)c1nc(C=CC(=O)COc2ccccc2)nc(C(C)(C)C)c1O,98 to 100 °C
3,Oc1ccc2ccc(OCc3ccc4ccccc4n3)cc2c1,218 to 220 °C
4,COc1c(Cl)cc(C(=O)Nc2c(Cl)cncc2Cl)c2c3ccccc3n(CC3CCCCC3)c12,247 to 249 °C
5,CS(=O)(=O)Nc1ccc(C(=O)c2[nH]c3cc(Cl)ccc3c2CC(=O)O)cc1,207 to 210 °C
6,CC(=O)SC(C(C)=O)c1ccccc1 (stereo not given),31 to 32 °C
7,COc1ccc(CCN2CCC(C(=O)c3nc4ccccc4s3)CC2)cc1,119 to 120 °C
8,CC(C)CC(=O)c1c(-c2ccc3cc(O)cc(Br)c3c2)oc2ccccc12,160 to 161 °C
9,CCCCn1c(=O)c2ncn(C)c2c2cccnc21,198 to 202 °C
10,CC(C)(C)N(NCc1ccccc1)C(=O)c1ccccc1,110 °C
11,CCOc1ccc(Nc2ncc3c(n2)N(c2ccccc2)C(=O)N(c2c(Cl)cccc2Cl)C3)cc1,224 to 226 °C
12,N#CC(C#N)=C(NCCN1CCCCC1)N1CCC(N2CCCCC2)CC1,198 to 200 °C
13,Cc1nc(NC(=O)c2ccccc2)sc1C(=O)NCc1cccc(Cl)c1,198 to 199 °C
14,CCOC(=O)Cc1sc(Sc2cc(C(=O)OC)ccn2)nc1C,52 to 54 °C
15,COc1c(Cl)cc(NC(C)=O)c(OC)c1N,113 °C
16,COC(=O)c1nc(Cl)c(F)c(N)c1Br,138 to 139 °C
17,Cc1nc(C(=O)NN)c2n1-c1ccc(Cl)cc1C(c1ccccc1)NC2 (stereo not given),225 to 230 °C
18,CNC1=NS(=O)N=C1NCCCN(Cc1ccccc1)c1ccccn1 (stereo not given),122 to 123 °C
19,CS(=O)(=O)c1cccc(C(=O)Nc2cc(C(=O)NCc3ccccc3)ccn2)c1,170 to 171 °C
20,C[N+](C)([O-])S(=O)(=O)c1ccc2c(c1)N(C1CN3CCC1CC3)c1ccccc1S2=O (stereo not given),130 °C
21,CN(C)c1ccc(C2NCCc3sccc32)cc1 (stereo not given),95 to 98 °C
22,O=S1(=O)c2cccc3cccc(c23)N1CCCN1CCC(c2c[nH]c3ccccc23)CC1,162 °C
23,Cc1nc2c(OCc3c(Cl)ccc(S(=O)(=O)N4CCC[C@H]4C(=O)NCc4ccc(C=NN)cc4)c3Cl)cccn2c1Br,124 °C
24,CCC1(C)CC(=NO)C(C)C(C)(CC)N1OC(C)c1ccccc1 (stereo not given),130 to 145 °C
25,COc1cc(C(=O)N2Cc3ccccc3Cc3ccccc32)ccc1NC(=O)c1ccc(Cl)cc1Cl,212 to 214 °C

row,Compound,melting point
1,O=C(O)CCC1c2ccccc2C(=O)N1c1ccccc1 (stereo not given),186 to 187 °C
2,CCOC1CC(n2cc(CC)c(=O)[nH]c2=O)OC1CNC(=O)Cc1c(Cl)cccc1Cl (stereo not given),249 to 250 °C
3,Cc1c(-c2ccncc2)sc2c1C(=O)CCC2,129 to 130 °C
4,CC#Cc1ccc([C@H]2CC[C@H](CCCCC)CC2)nn1,103 to 104 °C
5,CCOC(=O)CNC(=O)n1nc(Oc2cccc(C(F)(F)F)c2)cc1C,66 to 68 °C
6,CC(=O)OCC(N)C(=O)Nn1cccc1 (stereo not given),147 to 148 °C
7,COC(=O)[C@H](Cc1cccc(O)c1)NC(=O)OC(C)(C)C,61 to 65 °C
8,c1cn(CCCc2ccc(OCc3coc(-c4ccc(OCc5ccc6c(c5)OCO6)cc4)n3)cc2)cn1,124 to 125 °C
9,Cc1cc(-n2ncc(=O)[nH]c2=O)cc(Cl)c1Oc1ccc(O)c(S(=O)(=O)c2ccccc2)c1,78 to 81 °C
10,N#Cc1cc(-c2ccc(F)cc2)ccn1,194 to 195 °C
11,"CC(C#CC1CC(Oc2ccc(OC(F)(F)F)cc2)C1)N(O)C(N)=O (single isomer, unassigned; (+))",103 to 105 °C
12,Cc1ccc(C(=O)Nc2c(NC(=O)CN3CCC4(CC3)OCCO4)ccc3c2C(=O)c2ccccc2C3=O)cc1,197 to 198 °C
13,CCc1ccc(O)c(C#N)c1,95 to 98 °C
14,CC(Cc1ccc(OCCCCO)cc1)NCC(O)c1cccc(C(F)(F)F)c1 (stereo not given),69 to 76 °C
15,NCC1Cc2cc(Cl)cc(-c3cc(Cl)ccc3Cl)c2O1 (stereo not given),160 to 162 °C
16,C#CCCc1cc2ccc(C(=O)OC)cc2o1,68 to 69 °C
17,CCn1cc(C(=O)O)c(=O)c2cc(F)c(N3CCC(NC)C3)nc21 (stereo not given),242 °C
18,Cn1cccc1C(=O)Nc1cccc(C=CC(=O)N2CC(CCl)c3ccc([N+](=O)[O-])cc32)c1 (stereo not given),215 °C
19,O=Cc1cc(-c2ccc(Cl)cc2Cl)ccc1OC(F)(F)F,62 to 63 °C
20,C=CCn1c(=O)[nH]c(=O)c2[nH]c(C34CC5CC(CC3C5)C4)nc21,> 270 °C
21,CSCC1Cc2cc(C)c3[nH]c(=O)ccc3c2O1 (stereo not given),203 to 206 °C
22,CNC1NC(=O)N(c2ccccc2)C(=O)N1N (stereo not given),242 to 244 °C
23,CS(=O)(=O)c1ccc(C2=C(c3cccc(F)c3)C(=O)OC23CC3)cc1,130 to 131 °C
24,NC(=O)c1ccnc(-c2cccc3cc(Cc4cc(F)cc(Cl)c4)sc23)c1,173 to 175 °C
25,Oc1ccc(-c2nc(-c3cccs3)c[nH]2)cc1Br,125 to 130 °C
